What was measured:
Assay type in all cases: biochemical
[1] = biological target: HDAC2 (Homo sapiens, UniProt Q92769); test: HDAC2 enzymatic assay
Procedure: (§1) All enzymatic reactions were conducted in duplicate at room temperature for 17 hours in a 50 μl mixture containing HDAC assay buffer (50 mM Tris-HCl, pH 7.4, 137 mM NaCl, 2.7 mM KCl, 0.05% Tween 20, 5 μg BSA), an HDAC substrate, an HDAC enzyme, and a test compound. Compound dilution was prepared ten-fold higher than the final concentration of the compounds with 10% DMSO in HDAC assay buffer and 5 al of the dilution was added to a 50 al reaction so that the final concentration of DMSO is 1% in all of reactions. After enzymatic reactions, 50 μl of HDAC Developer was added to each well and the plate was incubated at room temperature for an additional 20 minutes. Fluorescence intensity was measured at an excitation of 360 nm and an emission of 460 nm using a Tecan Infinite M1000 or Biotek Synergy microplate reader. The fluorescent intensity data were analyzed using the computer software, Graphpad Prism. In the absence of the compound, the fluorescent intensity (Ft) in each data set was defined as 100% activity. In the absence of HDAC, the fluorescent intensity (Fb) in each data set was defined as 0% activity. The percent activity in the presence of each compound was calculated according to the following equation: % activity=(F−Fb)/(Ft−Fb), where F=the fluorescent intensity in the presence of the compound. […]

[2] = biological target: HDAC3/NCOR2 (Homo sapiens, UniProt O15379); test: HDAC3 enzymatic assay
Sequence of HDAC3/NCOR2 (Q9Y618 395-489): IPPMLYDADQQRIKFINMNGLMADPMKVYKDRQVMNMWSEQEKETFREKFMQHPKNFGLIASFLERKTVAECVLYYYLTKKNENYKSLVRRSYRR
Sequence of HDAC3/NCOR2 (O15379 whole entry): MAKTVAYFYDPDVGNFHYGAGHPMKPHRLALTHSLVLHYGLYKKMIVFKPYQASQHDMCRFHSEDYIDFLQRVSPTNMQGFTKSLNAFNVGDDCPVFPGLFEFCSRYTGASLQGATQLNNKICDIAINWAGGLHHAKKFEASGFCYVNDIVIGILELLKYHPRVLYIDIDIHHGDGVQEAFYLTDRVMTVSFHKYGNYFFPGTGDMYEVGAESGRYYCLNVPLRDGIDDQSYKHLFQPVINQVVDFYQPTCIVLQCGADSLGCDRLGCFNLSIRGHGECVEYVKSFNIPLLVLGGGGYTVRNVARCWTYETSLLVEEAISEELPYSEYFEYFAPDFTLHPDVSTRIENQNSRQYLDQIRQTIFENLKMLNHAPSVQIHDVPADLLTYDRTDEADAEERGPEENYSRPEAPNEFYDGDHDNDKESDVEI
Procedure: as §1

[3] = biological target: HDAC4 (Homo sapiens, UniProt P56524); test: HDAC4 enzymatic assay; conditions: Table 3 comparison results
Sequence of HDAC4 (P56524 whole entry): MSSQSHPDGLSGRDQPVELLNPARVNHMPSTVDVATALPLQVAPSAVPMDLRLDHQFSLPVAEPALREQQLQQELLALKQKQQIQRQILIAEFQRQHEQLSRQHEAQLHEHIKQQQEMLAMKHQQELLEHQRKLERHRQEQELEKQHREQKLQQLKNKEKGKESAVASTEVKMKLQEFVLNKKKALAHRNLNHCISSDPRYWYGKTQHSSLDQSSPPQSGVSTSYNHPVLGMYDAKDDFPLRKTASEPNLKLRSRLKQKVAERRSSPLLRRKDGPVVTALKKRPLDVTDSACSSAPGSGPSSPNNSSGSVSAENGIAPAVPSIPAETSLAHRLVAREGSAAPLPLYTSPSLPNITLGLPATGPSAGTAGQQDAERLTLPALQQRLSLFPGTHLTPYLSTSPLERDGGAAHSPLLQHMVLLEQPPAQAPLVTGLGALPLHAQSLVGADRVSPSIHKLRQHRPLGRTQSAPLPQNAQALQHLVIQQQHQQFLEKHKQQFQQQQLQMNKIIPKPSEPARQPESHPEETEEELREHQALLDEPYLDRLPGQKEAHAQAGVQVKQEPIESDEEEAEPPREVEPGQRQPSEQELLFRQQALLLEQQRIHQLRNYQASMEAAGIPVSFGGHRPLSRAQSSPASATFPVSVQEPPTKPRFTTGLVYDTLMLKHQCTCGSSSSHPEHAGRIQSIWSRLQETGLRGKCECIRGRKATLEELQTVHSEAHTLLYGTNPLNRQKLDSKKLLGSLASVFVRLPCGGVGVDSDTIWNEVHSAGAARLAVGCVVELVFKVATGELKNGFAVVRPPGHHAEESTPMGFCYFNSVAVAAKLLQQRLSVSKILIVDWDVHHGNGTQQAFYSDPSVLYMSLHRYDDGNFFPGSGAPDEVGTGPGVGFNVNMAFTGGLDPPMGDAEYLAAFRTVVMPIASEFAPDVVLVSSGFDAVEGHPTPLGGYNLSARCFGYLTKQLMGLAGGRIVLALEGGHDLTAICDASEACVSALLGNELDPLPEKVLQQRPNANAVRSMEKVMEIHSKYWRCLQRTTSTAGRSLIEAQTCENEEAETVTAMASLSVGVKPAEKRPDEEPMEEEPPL
Procedure: as §1

[4] = biological target: HDAC5 (Homo sapiens, UniProt Q9UQL6); test: HDAC5 enzymatic assay; conditions: Table 3 comparison results
Sequence of HDAC5 (Q9UQL6 whole entry): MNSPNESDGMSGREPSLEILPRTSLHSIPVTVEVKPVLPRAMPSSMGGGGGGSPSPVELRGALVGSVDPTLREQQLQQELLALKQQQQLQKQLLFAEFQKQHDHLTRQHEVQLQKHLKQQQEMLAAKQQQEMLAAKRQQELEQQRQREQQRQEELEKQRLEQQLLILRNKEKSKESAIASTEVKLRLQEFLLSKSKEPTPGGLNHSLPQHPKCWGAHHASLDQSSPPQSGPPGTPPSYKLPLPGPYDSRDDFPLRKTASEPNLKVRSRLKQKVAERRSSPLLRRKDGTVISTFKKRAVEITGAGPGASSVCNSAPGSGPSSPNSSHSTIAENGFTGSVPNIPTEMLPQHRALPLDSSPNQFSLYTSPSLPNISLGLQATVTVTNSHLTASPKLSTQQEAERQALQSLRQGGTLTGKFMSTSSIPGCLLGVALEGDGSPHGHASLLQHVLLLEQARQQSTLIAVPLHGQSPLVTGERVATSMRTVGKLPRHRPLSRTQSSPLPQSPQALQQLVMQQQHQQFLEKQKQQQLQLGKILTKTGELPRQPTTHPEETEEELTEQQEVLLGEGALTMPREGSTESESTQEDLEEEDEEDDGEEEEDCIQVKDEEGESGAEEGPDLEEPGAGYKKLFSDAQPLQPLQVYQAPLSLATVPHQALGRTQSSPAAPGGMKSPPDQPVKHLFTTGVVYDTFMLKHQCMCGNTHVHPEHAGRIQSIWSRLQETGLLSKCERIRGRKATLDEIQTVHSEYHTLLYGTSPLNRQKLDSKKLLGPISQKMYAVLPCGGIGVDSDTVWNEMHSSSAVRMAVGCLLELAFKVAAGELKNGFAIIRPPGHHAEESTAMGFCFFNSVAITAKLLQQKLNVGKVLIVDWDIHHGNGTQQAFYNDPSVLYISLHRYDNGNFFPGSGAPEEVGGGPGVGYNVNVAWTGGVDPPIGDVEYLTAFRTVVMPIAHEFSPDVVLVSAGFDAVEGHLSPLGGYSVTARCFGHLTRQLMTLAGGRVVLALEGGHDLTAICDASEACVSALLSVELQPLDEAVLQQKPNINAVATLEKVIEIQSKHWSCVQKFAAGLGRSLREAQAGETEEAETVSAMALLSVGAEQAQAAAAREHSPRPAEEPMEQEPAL
Procedure: as §1

[5] = biological target: T1, HDAC6 (Homo sapiens, UniProt Q9UBN7); test: HDAC6 enzymatic assay; conditions: Table 3 comparison results
T1 sequence (Q9UBN7 1-1215): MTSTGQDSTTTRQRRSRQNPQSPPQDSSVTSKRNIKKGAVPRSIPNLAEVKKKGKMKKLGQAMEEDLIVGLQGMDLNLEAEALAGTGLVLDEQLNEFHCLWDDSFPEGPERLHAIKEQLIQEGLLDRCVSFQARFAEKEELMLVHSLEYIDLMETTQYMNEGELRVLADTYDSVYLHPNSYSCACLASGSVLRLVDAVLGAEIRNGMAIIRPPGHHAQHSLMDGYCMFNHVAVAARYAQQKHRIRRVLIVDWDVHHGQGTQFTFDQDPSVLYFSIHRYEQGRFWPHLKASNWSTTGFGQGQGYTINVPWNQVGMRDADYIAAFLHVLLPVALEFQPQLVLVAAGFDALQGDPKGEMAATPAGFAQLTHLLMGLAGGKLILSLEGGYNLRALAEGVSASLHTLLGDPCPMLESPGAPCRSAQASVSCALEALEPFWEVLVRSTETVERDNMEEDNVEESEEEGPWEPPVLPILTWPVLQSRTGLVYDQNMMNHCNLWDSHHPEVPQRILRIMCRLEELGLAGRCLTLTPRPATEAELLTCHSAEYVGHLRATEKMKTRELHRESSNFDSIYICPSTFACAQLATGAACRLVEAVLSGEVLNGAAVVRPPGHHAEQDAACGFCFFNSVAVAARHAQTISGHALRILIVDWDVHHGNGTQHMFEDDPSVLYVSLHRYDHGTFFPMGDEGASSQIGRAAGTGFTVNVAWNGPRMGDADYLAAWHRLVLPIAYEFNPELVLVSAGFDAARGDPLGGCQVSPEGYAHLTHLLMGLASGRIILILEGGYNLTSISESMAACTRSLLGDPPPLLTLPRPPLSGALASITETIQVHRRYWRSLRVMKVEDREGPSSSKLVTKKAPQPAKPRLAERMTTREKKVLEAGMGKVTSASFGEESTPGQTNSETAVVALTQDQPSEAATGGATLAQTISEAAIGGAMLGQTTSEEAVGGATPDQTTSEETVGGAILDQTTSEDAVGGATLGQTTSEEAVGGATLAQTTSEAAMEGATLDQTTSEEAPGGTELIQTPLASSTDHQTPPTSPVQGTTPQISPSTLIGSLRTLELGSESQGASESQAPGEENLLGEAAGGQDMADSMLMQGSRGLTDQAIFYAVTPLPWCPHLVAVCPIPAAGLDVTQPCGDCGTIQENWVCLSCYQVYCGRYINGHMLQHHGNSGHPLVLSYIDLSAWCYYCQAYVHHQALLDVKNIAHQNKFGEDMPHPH
Procedure: as §1

[6] = biological target: T2, HDAC7 (Homo sapiens, UniProt Q8WUI4); test: HDAC7 enzymatic assay; conditions: Table 3 comparison results
T2 sequence (Q8WUI4 1-952): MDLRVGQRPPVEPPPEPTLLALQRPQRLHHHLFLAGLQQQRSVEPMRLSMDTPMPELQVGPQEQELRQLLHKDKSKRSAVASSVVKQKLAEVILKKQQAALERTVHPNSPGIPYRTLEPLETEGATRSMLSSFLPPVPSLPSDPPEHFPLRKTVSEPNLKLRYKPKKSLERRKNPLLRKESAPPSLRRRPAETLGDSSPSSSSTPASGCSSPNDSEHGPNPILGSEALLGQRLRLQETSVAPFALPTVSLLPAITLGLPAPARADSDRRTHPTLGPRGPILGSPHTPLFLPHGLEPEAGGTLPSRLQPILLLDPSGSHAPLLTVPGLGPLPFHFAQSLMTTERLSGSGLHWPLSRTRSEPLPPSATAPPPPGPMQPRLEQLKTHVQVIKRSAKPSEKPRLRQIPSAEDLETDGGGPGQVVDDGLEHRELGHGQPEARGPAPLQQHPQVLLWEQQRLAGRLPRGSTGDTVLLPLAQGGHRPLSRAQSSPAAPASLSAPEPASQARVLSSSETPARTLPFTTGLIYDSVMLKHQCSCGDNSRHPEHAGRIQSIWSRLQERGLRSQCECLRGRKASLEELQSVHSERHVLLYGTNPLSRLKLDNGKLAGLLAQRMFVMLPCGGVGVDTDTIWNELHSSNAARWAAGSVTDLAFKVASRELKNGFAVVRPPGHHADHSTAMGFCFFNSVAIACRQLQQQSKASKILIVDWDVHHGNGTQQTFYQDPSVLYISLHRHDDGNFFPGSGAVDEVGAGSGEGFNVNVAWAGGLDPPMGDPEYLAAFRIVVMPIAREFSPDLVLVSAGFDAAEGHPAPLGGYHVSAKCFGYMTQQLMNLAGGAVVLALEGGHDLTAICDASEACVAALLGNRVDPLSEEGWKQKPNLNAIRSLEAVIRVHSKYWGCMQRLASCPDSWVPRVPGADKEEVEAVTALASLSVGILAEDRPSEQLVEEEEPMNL
Procedure: as §1

[7] = biological target: T3, HDAC8 (Homo sapiens, UniProt Q9BY41); test: HDAC8 enzymatic assay
T3 sequence (Q9BY41 1-377): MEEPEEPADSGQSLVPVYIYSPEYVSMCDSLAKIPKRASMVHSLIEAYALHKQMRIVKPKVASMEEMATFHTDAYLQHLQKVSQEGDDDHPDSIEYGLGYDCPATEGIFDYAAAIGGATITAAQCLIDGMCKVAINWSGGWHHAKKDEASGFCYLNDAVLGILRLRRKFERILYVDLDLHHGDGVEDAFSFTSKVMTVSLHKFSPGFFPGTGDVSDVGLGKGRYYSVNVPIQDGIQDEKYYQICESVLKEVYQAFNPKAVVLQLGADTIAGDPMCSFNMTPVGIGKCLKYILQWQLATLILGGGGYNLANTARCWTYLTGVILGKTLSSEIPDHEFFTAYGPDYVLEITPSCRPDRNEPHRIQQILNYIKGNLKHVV
Procedure: as §1

[8] = biological target: HDAC9 (Homo sapiens, UniProt Q9UKV0); test: HDAC9 enzymatic assay; conditions: Table 3 comparison results
Sequence of HDAC9 (Q9UKV0 whole entry): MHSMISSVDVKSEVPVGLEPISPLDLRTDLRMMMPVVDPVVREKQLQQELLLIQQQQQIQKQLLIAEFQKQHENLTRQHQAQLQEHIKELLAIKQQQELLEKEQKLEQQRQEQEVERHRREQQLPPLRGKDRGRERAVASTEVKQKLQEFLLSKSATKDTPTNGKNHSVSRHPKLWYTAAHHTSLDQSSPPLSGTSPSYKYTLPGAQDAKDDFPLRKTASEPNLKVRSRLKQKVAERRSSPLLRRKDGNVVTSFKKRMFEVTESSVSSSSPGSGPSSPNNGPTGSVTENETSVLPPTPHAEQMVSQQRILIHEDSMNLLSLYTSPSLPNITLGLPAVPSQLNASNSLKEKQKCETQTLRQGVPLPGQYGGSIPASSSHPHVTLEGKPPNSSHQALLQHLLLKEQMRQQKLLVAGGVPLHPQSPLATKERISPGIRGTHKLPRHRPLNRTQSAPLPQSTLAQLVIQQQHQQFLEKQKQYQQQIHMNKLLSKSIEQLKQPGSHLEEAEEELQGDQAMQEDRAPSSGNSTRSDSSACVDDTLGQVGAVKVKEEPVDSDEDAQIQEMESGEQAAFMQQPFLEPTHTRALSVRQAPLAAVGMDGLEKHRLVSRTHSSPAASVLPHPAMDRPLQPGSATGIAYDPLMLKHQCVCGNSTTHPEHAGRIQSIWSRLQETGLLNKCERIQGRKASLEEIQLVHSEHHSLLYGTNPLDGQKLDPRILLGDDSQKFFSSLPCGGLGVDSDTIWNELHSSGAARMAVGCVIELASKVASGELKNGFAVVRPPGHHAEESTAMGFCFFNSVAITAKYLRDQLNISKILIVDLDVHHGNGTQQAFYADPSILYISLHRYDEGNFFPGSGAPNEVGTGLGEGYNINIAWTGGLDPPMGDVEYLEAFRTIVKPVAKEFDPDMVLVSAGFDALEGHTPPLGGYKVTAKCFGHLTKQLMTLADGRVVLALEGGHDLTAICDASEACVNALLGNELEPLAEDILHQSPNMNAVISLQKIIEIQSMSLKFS
Procedure: as §1

[9] = biological target: T4, HDAC10 (Homo sapiens, UniProt Q969S8); test: HDAC10 enzymatic assay; conditions: Table 3 comparison results
T4 sequence (Q969S8 1-669): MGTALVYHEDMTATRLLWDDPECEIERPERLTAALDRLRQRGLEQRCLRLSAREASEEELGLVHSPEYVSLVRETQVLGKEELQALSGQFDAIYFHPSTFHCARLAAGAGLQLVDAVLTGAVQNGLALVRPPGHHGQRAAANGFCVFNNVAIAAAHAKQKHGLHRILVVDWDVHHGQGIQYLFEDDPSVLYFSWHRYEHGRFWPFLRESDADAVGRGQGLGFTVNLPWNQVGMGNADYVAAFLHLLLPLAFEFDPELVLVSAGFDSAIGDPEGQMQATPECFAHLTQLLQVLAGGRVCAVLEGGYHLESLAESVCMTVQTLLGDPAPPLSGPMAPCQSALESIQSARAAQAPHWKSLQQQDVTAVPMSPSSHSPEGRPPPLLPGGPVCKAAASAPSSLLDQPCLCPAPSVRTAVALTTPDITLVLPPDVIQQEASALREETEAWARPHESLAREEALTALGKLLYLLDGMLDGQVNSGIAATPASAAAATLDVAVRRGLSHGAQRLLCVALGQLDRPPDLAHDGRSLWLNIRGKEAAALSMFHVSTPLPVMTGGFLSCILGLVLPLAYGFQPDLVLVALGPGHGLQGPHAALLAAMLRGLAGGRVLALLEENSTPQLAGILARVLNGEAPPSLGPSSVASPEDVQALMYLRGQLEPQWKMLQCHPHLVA
Procedure: as §1

[10] = biological target: T5, HDAC11 (Homo sapiens, UniProt Q96DB2); test: HDAC11 enzymatic assay; conditions: Table 3 comparison results
T5 sequence (Q96DB2 1-347): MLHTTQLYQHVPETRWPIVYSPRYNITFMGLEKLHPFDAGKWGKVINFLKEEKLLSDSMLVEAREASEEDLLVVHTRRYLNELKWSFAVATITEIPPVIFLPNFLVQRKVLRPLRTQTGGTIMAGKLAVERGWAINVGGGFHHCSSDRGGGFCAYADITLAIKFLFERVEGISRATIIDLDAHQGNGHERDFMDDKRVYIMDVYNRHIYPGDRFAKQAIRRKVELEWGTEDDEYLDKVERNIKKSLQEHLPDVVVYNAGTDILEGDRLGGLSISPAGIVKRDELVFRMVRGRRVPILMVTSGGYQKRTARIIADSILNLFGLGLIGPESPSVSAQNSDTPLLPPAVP
Procedure: as §1

[11] = biological target: HDAC1 (Homo sapiens, UniProt Q13547); test: HDAC1 enzymatic assay
Sequence of HDAC1 (Q13547 whole entry): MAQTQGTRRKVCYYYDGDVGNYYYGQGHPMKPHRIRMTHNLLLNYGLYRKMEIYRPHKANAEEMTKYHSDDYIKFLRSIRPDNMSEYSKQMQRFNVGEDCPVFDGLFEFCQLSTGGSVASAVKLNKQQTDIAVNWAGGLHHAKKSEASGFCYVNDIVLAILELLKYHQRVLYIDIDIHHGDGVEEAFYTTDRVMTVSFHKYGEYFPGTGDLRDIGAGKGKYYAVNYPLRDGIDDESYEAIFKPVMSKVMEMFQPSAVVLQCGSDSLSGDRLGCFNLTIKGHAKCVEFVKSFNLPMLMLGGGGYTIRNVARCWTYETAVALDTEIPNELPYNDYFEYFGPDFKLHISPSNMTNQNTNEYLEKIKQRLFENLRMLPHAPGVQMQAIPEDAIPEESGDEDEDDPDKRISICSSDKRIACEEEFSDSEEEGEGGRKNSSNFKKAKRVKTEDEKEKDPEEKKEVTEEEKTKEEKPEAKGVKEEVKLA
Procedure: as §1

Sequence of HDAC2 (Q92769 whole entry): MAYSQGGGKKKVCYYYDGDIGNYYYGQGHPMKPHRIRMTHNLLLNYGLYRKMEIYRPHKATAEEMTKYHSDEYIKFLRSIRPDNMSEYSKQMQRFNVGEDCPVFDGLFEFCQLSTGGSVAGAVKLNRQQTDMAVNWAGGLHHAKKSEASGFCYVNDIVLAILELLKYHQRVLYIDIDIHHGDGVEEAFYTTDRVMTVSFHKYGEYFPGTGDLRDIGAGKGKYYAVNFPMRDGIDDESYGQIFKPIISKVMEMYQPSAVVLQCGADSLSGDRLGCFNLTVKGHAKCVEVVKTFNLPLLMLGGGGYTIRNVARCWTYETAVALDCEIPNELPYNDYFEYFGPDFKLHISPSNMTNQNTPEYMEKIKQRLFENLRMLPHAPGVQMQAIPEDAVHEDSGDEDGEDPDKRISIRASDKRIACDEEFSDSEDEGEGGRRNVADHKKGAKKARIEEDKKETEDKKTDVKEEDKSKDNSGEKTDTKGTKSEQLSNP

SMILES | IC50 [1] | IC50 [2] | IC50 [3] | IC50 [4] | IC50 [5] | IC50 [6] | IC50 [7] | IC50 [8] | IC50 [9] | IC50 [10] | IC50 [11]
FC(F)(F)c1nc(-c2cnc(NC3(c4ccccc4)CC3)nc2)no1 | 13000 nM | 4100 nM | 13 nM | 250 nM | 150 nM | 20 nM | > 30000 nM | 77 nM | 6400 nM | > 30000 nM | –
FC(F)c1nc(-c2cnc(NC3(c4ccccc4)CC3)nc2)no1 | – | – | – | – | 2900 nM | – | – | – | – | – | > 30000 nM

— patent publication US20200171028A1, “METALLOENZYME INHIBITOR COMPOUNDS” (Viiamet Pharmaceuticals Holdings, LLC, priority 2017, published 2020)
